Measurements reported in US9101627B2, “Pharmaceutical compositions containing bradykinin antagonists and hyaluronic acid, and uses thereof” (ISTITUTO LUSO FARMACO D'ITALIA S.P.A., priority 2007, dated 2015).

Columns and labels:
[1] = test system: experimental model of osteoarthritis induced by intra-articular injection of sodium monoiodoacetate (MIA); assay: MIA-induced osteoarthritis model, incapacitance test (weight imbalance between paws); type: in vivo; conditions: rat; for time of maximal inhibitory effect after administration / reduction of the pain caused by osteoarthritis: 3 μg/25 μl i.a., single compound; for reduction of the pain caused by osteoarthritis: 7 days after MIA; for inhibitory effect at higher dose: 10 μg/25 μl i.a. versus 3 μg/25 μl; for duration of antinociceptive effect: single compound i.a.
Method: The activity of MEN16132, icatibant and hyaluronic acid was measured in an experimental model of osteoarthritis induced by intra-articular injection of sodium monoiodoacetate (MIA) which inhibits glycolysis in the chondrocytes, thus causing damage and death to those cells with consequent degeneration of the joint surface, in a very similar way to human osteoarthritis.
MIA (1 mg/25 μl) was injected into the intra-articular space of the right knee of the rat, while 25 μl of saline was administered to the left knee as internal control.
The administration of MIA causes pain, difficulty of walking and inability to bear weight on the paw corresponding to the treated knee; the weight of the body therefore falls mainly on the left paw, to an extent directly proportional to the pain perceived. This effect persists for many weeks. The imbalance in weight on the two weight-bearing paws, evaluated in a non-invasive way with the incapacitance test, measures the pain resulting from the joint damage (osteoarthritis) induced by MIA.
The purpose of this test was to evaluate the protective effect of bradykinin B2 receptor antagonists against experimental osteoarthritis, and to establish the effect of co-administration of hyaluronic acid.
Seven days after the treatment with MIA, the compounds under study were injected, and the test was repeated at various times to measure the painkilling effect and its duration.

[2] = test system: patients with symptomatic OA of the knee; conditions: 58 patients, single intra-articular administration 90 μg/1 ml; cited from earlier work
[3] = test system: patients with OA of the knee; conditions: intra-articular, 3×500 μg injections one week apart; cited from earlier work

SMILES | time of maximal inhibitory effect after administration [1] [days] | reduction of the pain caused by osteoarthritis [1] [%] | inhibitory effect at higher dose [1] | duration of antinociceptive effect [1] | intensity of pain in the knee versus placebo [2] | duration of analgesic response after the treatment [3] | side effects [3]
Cc1cc(C)c2cccc(OCc3c(Cl)ccc(S(=O)(=O)NC4(C(=O)N5CCN(C(=O)[C@@H](N)CCC[N+](C)(C)C)CC5)CCOCC4)c3Cl)c2n1 [MEN16132, (4-(S)-Amino-5-(4-{4-[2,4-dichloro-3-(2,4-dimethyl-quinoline-8-yloxymethyl)-benzenesulphonylamino]-tetrahydro-pyran-4-carbonyl}-piperazin-1-yl)-5-oxo-pentyl]-trimethyl-ammonium] | 3 | 55 | No further significant increase in inhibitory effect | lasted for over a week |  |  | 
NC(N)=NCCC[C@@H](N)C(=O)N[C@@H](CCCN=C(N)N)C(=O)N1CCC[C@H]1C(=O)N1C[C@H](O)C[C@H]1C(=O)NCC(=O)N[C@@H](Cc1cccs1)C(=O)N[C@@H](CO)C(=O)N1Cc2ccccc2C[C@@H]1C(=O)N1[C@H](C(=O)N[C@@H](CCCN=C(N)N)C(=O)O)C[C@@H]2CCCC[C@@H]21 [icatibant, H-D-Arg-Arg-Pro-Hyp-Gly-Thi-Ser-D-Tic-Oic-Arg-OH] | 3 | 40 | No further significant increase in inhibitory effect | lasted for over a week | reduced the intensity of pain in the knee to a greater extent than the placebo | up to 3 months | negligible or no side effects
